Consider 28 molecules from patent publication US20030044399A1, “Method of treatment” (SmithKline Beecham Corporation, priority 1998, published 2003).

Read-outs that look alike come from different tables or passages of the source.

One test deals with Cruzain (Trypanosoma cruzi, UniProt P25779). Kind of test: Cysteine protease inhibition, progress curve method, cruzain. In kind it is biochemical. The conditions noted are these: 4 uM Ac-Lys-Glu-Lys-Leu-Arg-AMC, 100 mM Na acetate pH 5.5, 5 mM cysteine. The procedure, abridged: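 Kinetic constants from AMC-release progress curves over 20–30 min at ambient temperature in 100 mM Na acetate pH 5.5, 5 mM cysteine, 2% DMSO; enzyme added last to inhibitor plus substrate. Substrates: 10 uM Cbz-Phe-Arg-AMC (Leishmania, Schistosoma), 10 uM Cbz-Leu-Arg-AMC (falcipain), 4 uM Ac-Lys-Glu-Lys-Leu-Arg-AMC (cruzain). Ki,app from linear curves; time-dependent inhibition as kobs/[I].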
Sequence of Cruzain (P25779 123-337): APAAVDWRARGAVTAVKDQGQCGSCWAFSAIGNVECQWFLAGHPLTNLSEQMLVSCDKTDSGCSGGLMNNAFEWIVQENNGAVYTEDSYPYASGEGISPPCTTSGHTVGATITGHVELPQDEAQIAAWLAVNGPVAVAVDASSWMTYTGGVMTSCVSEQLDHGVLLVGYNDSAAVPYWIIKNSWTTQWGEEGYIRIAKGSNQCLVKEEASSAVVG

The target in another test is Rhodazain (Trypanosoma brucei rhodesiense, UniProt Q95PM0). As to the kind of experiment: Cysteine protease inhibition, progress curve method, rhodazain. The conditions noted are these: 10 uM Cbz-Leu-Arg-AMC, 100 mM Na acetate pH 5.5, 5 mM cysteine. In kind it is biochemical, Trypanosoma brucei rhodesiensi.
Sequence of Rhodazain (Q95PM0 entry or part of it): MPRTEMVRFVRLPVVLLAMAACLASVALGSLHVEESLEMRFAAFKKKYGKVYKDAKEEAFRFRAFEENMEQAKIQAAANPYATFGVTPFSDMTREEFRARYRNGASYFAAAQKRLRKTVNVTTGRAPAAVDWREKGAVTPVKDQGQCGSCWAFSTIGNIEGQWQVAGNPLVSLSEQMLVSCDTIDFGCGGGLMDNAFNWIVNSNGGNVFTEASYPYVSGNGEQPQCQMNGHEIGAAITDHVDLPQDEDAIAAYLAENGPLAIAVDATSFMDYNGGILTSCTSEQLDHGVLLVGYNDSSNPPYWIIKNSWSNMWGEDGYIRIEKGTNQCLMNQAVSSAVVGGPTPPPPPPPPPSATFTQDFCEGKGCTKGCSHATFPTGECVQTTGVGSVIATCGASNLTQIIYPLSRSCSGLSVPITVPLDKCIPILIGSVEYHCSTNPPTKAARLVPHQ

Consider `CC(C)C[C@H](NC(=O)c1cc2ccccc2s1)C(=O)N[C@H]1CCCN(C(=O)Nc2ccccc2F)CC1=O` (stereo in doubt) [Example 215, Benzo[b]thiophene-2-carboxylic acid {(S)-1-[1-(2-fluoro-phenylcarbamoyl)-3-oxo-azepan-4-ylcarbamoyl]-3-methyl-butyl}-amide], for which the Ki turned out to be 6.4 nM on Cruzain (read-out: Cruzain Ki) and 3.6 nM on Rhodazain (Rhodazain Ki (nM)).

As for “5-(2-Morpholin-4-yl-ethoxy)-benzofuran-2-carboxylic acid {(S)-3-methyl-1-[3-oxo-(1-oxy-pyridine2-sulfonyl)-azepan-4-ylcarbamoyl]-buty}-amide [Example 116]”, the values for the Ki on Cruzain (read-out: Cruzain Ki) and at Rhodazain (read-out: Rhodazain Ki) were 4.4 nM and 3.2 nM, respectively.

Take `CC(C)C[C@@H](NC(=O)c1cc2cc(F)ccc2o1)C(=O)N[C@H]1CCCN(S(=O)(=O)c2cccc[n+]2[O-])CC1=O` [Example 191, 5-Fluoro-benzofuran-2-carboxylic acid {(S)-3-methyl-1-[3-oxo-1-(1-ox-pyridine-2-sulfonyl)-azepan-4-ylcarbamoyl]-butyl}-amide]: the Ki on Cruzain (read-out: Cruzain Ki) stood at 12 nM; on Rhodazain (Rhodazain Ki (nM)), 8.3 nM.

`CC(C)C[C@@H](NC(=O)c1cc2cc(OCC[N+]3([O-])CCOCC3)ccc2o1)C(=O)N[C@@H]1CCCN(S(=O)(=O)c2ccccn2)CC1=O` [Example 43, 5-(4-Oxy-morpholino-4-yl-ethoxy)-benzofuran-2-carboxylic acid {(S)-3-methyl-1-[3-oxo-1-(pyridine-2-sulfonyl)-azepan-4-ylcarbamoyl]-butyl}amide]: the values for the Ki at Cruzain (read-out: Cruzain Ki) and at Rhodazain (Rhodazain Ki (nM)) were 3.6 nM and 4.9 nM, respectively.

With `CCc1c(C(=O)NC(CC(C)C)C(=O)N[C@H]2CCN(S(=O)(=O)c3cccc[n+]3[O-])CCC2=O)oc2ccccc12` (single isomer, unassigned) [Example 207], the Ki on Cruzain (read-out: Cruzain Ki) stood at 10 nM; at Rhodazain (Rhodazain Ki (nM)), 5.4 nM.

Consider `Cc1c(C(=O)N[C@H](CC(C)C)C(=O)N[C@H]2CCCN(S(=O)(=O)c3cccc[n+]3[O-])CC2=O)oc2ccc(F)cc12` (single isomer, unassigned) [Example 195], for which the inhibitory constant (Ki) on Cruzain (read-out: Cruzain Ki) stood at 9.4 nM; on Rhodazain (Rhodazain Ki (nM)) it was 6.6 nM.

With `CC(C)C[C@H](NC(=O)c1cccc2ccccc12)C(=O)N[C@H]1CCCN(S(=O)(=O)c2ccccn2)CC1=O` [Example 184, Naphthalene-1-carboxylic acid {(S)-3-methyl-1-[3-oxo-1-(pyridine-2-sulfonyl)-azepan-4-ylcarbamoyl]-butyl}-amide], the Ki on Cruzain (Cruzain Ki nM) is 2.1 nM; at Rhodazain (Rhodazain Ki (nM)), 1.8 nM.

Consider `CC(C)CC(NC(=O)c1cc2ccccc2n1C)C(=O)NC1CCCN(S(=O)(=O)c2cccs2)CC1=O` [Example 148, 1-Methyl-1-H-indole-2-carboxylic acid-{(S)-3-methyl-1-[3-oxo-1-(thiophene-2-sulfonyl)-azepan-4-ylcarbamoyl]-butyl}-amide], for which the Ki stood at 8.2 nM at Cruzain (read-out: Cruzain Ki) and 23 nM at Rhodazain (Rhodazain Ki (nM)).

Take `COc1ccc2oc(C(=O)N[C@@H](CC(C)C)C(=O)N[C@H]3CCN(S(=O)(=O)c4cccc[n+]4[O-])CCC3=O)c(C)c2c1` [Example 205, 5-Methoxy-3-methyl-benzofuran-2-carboxylic acid {(S)-3-methyl-1-[3-oxo-1-(1-oxy-pyridine-2-sulfonyl)-azepan-4-ylcarbamoyl]-butyl}-amide]: the figures for the Ki at Cruzain (read-out: Cruzain Ki) and at Rhodazain (Rhodazain Ki (nM)) were 5.2 nM and 3.2 nM, respectively.

Turning to `CC(C)C[C@@H](NC(=O)c1cc2ccccc2s1)C(=O)N[C@@H]1CCCN(S(=O)(=O)c2ccccn2)CC1=O` (stereo in doubt) [Example 31, Benzo[b]thiophene-2-carboxylic acid {(S)-3-methyl-1-[3-oxo-1-(pyridine-2-sulfonyl)-azepan-4-ylcarbamoyl]-butyl}amide], the Ki on Cruzain (read-out: Cruzain Ki) is 7.2 nM; at Rhodazain (Rhodazain Ki (nM)) it was 5 nM.

`CC(C)C[C@H](NC(=O)c1cc2ccccc2o1)C(=O)N[C@H]1C[C@H](C)CN(S(=O)(=O)c2ccccn2)CC1=O` (single isomer, unassigned) [Example 167]: the Ki on Cruzain (read-out: Cruzain Ki) turned out to be 3.5 nM; at Rhodazain (Rhodazain Ki (nM)), 4 nM.

Regarding `Cc1c(C(=O)N[C@H](CC(C)C)C(=O)N[C@@H]2CCCN(S(=O)(=O)c3cccc[n+]3[O-])CC2=O)oc2ccccc12` (single isomer, unassigned) [Example 99], the values for the Ki at Cruzain (read-out: Cruzain Ki) and on Rhodazain (Rhodazain Ki (nM)) were 7.8 nM and 5.1 nM, respectively.

Turning to `CC(C)C[C@@H](NC(=O)c1ccc(Br)o1)C(=O)N[C@@H]1CCCN(S(=O)(=O)c2ccccn2)CC1=O` (single isomer, unassigned) [Example 68], the Ki on Cruzain (read-out: Cruzain Ki) was 3.3 nM; on Rhodazain (Rhodazain Ki (nM)) it was 0.93 nM.

As to `COc1cc2cc(C(=O)N[C@H](CC(C)C)C(=O)N[C@@H]3CCCN(S(=O)(=O)c4cccc[n+]4[O-])CC3=O)oc2cc1OC` [Example 52, 5,6-Dimethoxy-benzofuran-2-carboxylic acid {(S)-3-methyl-1-[3-oxo-1-(1-oxy-pyridine-2-sulfonyl)-azepan-4-ylcarbamoyl]-butyl}amide], the Ki at Cruzain (read-out: Cruzain Ki) is 48 nM; on Rhodazain (Rhodazain Ki (nM)), 3.3 nM.

With `CC(C)C[C@@H](NC(=O)c1ccc2c(c1)OCO2)C(=O)N[C@@H]1CCCN(S(=O)(=O)c2cccc[n+]2[O-])CC1=O` [Example 55, Benzo[1,3]dioxole-5-carboxylic acid {(S)-3-methyl-1-[3-oxo-1-(1-oxy-pyridine-2-sulfonyl)-azepan-4-ylcarbamoyl]-butyl}amide], the inhibition constant Ki amounted to 12 nM on Cruzain (read-out: Cruzain Ki) and 7.3 nM on Rhodazain (Rhodazain Ki (nM)).

On to `Cc1c(C(=O)N[C@@H](CC(C)C)C(=O)N[C@@H]2CCCN(S(=O)(=O)c3cccs3)CC2=O)oc2ccccc12` [Example 145, 3-Methyl-benzofuran-2-carboxylic acid-{(S)-3-methyl-1-[3-oxo-1-(thiophene-2-sulfonyl)-azepan-4-ylcarbamoyl]-butyl}-amide], for which the Ki at Cruzain (read-out: Cruzain Ki) was 6.2 nM; on Rhodazain (Rhodazain Ki (nM)), 9.4 nM.

As for `CC(C)C[C@@H](NC(=O)c1cc2ccccc2o1)C(=O)N[C@@H]1CCCN(S(=O)(=O)c2cccc[n+]2[O-])CC1=O` [Example 49], the Ki was found to be 5.6 nM on Cruzain (read-out: Cruzain Ki) and 3.1 nM on Rhodazain (Rhodazain Ki (nM)).

With `COc1ccc(C(=O)N[C@H](CC(C)C)C(=O)N[C@@H]2CCCN(S(=O)(=O)c3ccccc3C#N)CC2=O)cc1OC` [Example 120], the Ki on Cruzain (read-out: Cruzain Ki) was 9.9 nM; on Rhodazain (Rhodazain Ki (nM)) it was 11 nM.

Regarding `Cc1c(C(=O)NC(CC(C)C)C(=O)N[C@H]2CCCN(S(=O)(=O)c3cccc[n+]3[O-])CC2=O)oc2cc(F)ccc12` (single isomer, unassigned) [Example 196], the inhibition constant Ki at Cruzain (read-out: Cruzain Ki) worked out at 11 nM; on Rhodazain (Rhodazain Ki (nM)), 6.8 nM.

Turning to `Cc1oc(-c2ccccc2)nc1C(=O)N[C@@H](CC(C)C)C(=O)NC1CCCN(S(=O)(=O)c2ccccn2)CC1=O` (stereo partly drawn) [Example 106, 5-Methyl-2-phenyl-oxazole-4-carboxylic acid {(S)-3-methyl-1-[3-oxo-1-(pyridine-2-sulfonyl)-azepan-4-ylcarbamoyl]-butyl}amide], the values for the inhibitory constant (Ki) at Cruzain (read-out: Cruzain Ki) and at Rhodazain (Rhodazain Ki (nM)) were 16 nM and 5.8 nM, respectively.

Turning to `CC(C)C[C@H](NC(=O)c1cc2ccccc2n1C)C(=O)N[C@H]1CCCN(S(=O)(=O)c2nccs2)CC1=O` [Example 128, 1-Methyl-1H-indole-2-carboxylic acid{(S)-3-methyl-1-[3-oxo-1-(thiazole-2-sulfonyl)-azepan-4-ylcarbamoyl]-butyl}amide], the Ki at Cruzain (read-out: Cruzain Ki) was determined as 17 nM; at Rhodazain (Rhodazain Ki (nM)), 8.2 nM.

As for `Cc1c(C(=O)N[C@@H](CC(C)C)C(=O)N[C@H]2CCCN(C(=O)Nc3ccccc3F)CC2=O)oc2ccccc12` [Example 216, 3-Methyl-benzofuran-2-carboxylic acid {(S)-1-[1-(2-fluoro-phenylcarbamoyl)-3-oxo-azepan-4-ylcarbamoyl]-3-methyl-butyl}-amide], the inhibitory constant (Ki) on Cruzain (read-out: Cruzain Ki) turned out to be 6.9 nM; at Rhodazain (Rhodazain Ki (nM)), 3.4 nM.

`COc1cccc2cc(C(=O)N[C@@H](CC(C)C)C(=O)N[C@H]3CCCN(S(=O)(=O)c4nccs4)CC3=O)oc12` [Example 125]: the Ki worked out at 4 nM on Cruzain (read-out: Cruzain Ki) and 4.1 nM at Rhodazain (Rhodazain Ki (nM)).

Turning to `CC(C)C[C@@H](NC(=O)c1cc2cc(F)c(F)cc2o1)C(=O)N[C@@H]1CCCN(S(=O)(=O)c2ccccn2)CC1=O` (stereo in doubt) [Example 149, 5,6-Difluoro-benzofuran-2-carboxylic acid {(S)-3-methyl-1-[1-(pyridine-2-sulfonyl)-3-oxo-azepan-4-ylcarbamoyl]-butyl}amide], the figures for the Ki on Cruzain (read-out: Cruzain Ki) and at Rhodazain (Rhodazain Ki (nM)) were 9.1 nM and 6.3 nM, respectively.

On to `CC(C)C[C@H](NC(=O)c1cc2ccccc2o1)C(=O)N[C@H]1C[C@H](C)CN(S(=O)(=O)c2ccccn2)CC1=O` (single isomer, unassigned) [Example 173], for which the Ki on Cruzain (read-out: Cruzain Ki) came to 2 nM; on Rhodazain (Rhodazain Ki (nM)), 2.2 nM.

On to `CC(C)C[C@H](NC(=O)c1cc2ccccc2o1)C(=O)N[C@H]1CCCN(S(=O)(=O)c2cccs2)CC1=O` [Example 142, Benzofuran-2-carboxylic acid-{(S)-3-methyl-1-[3-oxo-1-(thiophene-2-sulfonyl)-azepan-4-ylcarbamoyl]-butyl}-amide], for which the Ki on Cruzain (read-out: Cruzain Ki) stood at 2.4 nM; at Rhodazain (Rhodazain Ki (nM)), 5.2 nM.

Turning to `COc1ccc2oc(C(=O)N[C@H](CC(C)C)C(=O)N[C@@H]3CCCN(S(=O)(=O)c4cccc[n+]4[O-])CC3=O)cc2c1` (single isomer, unassigned) [Example 63], the Ki at Cruzain (read-out: Cruzain Ki) is 9.8 nM; on Rhodazain (Rhodazain Ki (nM)) it was 5.9 nM.

For the molecule `CC(C)C[C@@H](NC(=O)c1cc2ccccc2o1)C(=O)N[C@@H]1CCCN(S(=O)(=O)c2ccccn2)CC1=O` [Example 16], the Ki at Cruzain (read-out: Cruzain Ki) came out at 6.1 nM; at Rhodazain (Rhodazain Ki (nM)), 5.5 nM.

For orientation: Ki means a measure of affinity in units of concentration, obtained from inhibition or displacement.
